# Measurements published in ChEMBL document CHEMBL3301464, “MMV Malaria Box anti-babesial screening”.
# Key:
# [1] = (§1) MMV: Anti-babesial activity assay. Parasite pRBCs at 1% parasitemia were cultivated in 100 ul with 96-well plates at 2.5% and 5% hematocrits. The parasites were cultivated in triplicate for 4 days without replacement of the medium for each concentration of the compound.; type: functional, Babesia bigemina
# [2] = as §1; type: functional, Babesia bovis
# [3] = as §1; type: functional, Babesia equi
# [4] = as §1; type: functional, Babesia caballi
Compound,IC50 [1] [µM],IC50 [2] [µM],IC50 [3] [µM],IC50 [4] [µM]
CC1=C(CC(=O)c2cccc([N+](=O)[O-])c2)C(=O)c2ccccc2C1=O,0.49,0.36,4.85,6.86
c1ccc2c(NCCc3c[nH]c4ccccc34)c3ccccc3nc2c1,1.03,0.71,1.39,0.21
COc1ccc2nc(C)cc(Nc3ccc(Cl)cc3)c2c1,8.15,2.4,4.29,> 25
COc1ccc(C(=O)NC(c2ccccc2Cl)c2cc(Cl)c3cccnc3c2O)cc1 (centres undefined),15.9,0.19,0.42,17.5
CC(C)CNC(=O)c1c(N)n(CCc2ccccc2F)c2nc3ccccc3nc12,7.67,10,13.3,1
COc1ccc2c(c1OC)C(=O)N1c3ccccc3N=C(c3ccc(C)cc3)CC21 (centres undefined),16.1,13,14.6,17.1
CCCCOC(=O)c1ccc(Nc2cc(C)nc3ccc(OC)cc23)cc1,10,22.7,18.1,17.8
CCCC(c1nnnn1C1CCCCC1)N1CCN(C(=O)c2ccco2)CC1 (centres undefined),0.083,0.059,0.219,0.13
Cc1ccc(NC(=O)Nc2cccc(Cl)c2)cc1F,10,11.1,14.3,0.074
Clc1ccc2c(N3CCCC3)ccnc2c1,9.15,7.09,8.83,6.86
CCc1ccc(Nc2cc(C)nc3nc(C)nn23)cc1,10,13.5,10,0.074
COc1ccc(-c2nc3cc(Cc4ccc5[nH]c(-c6ccc(OC)cc6)nc5c4)ccc3[nH]2)cc1,7.5,5.58,8.12,3.21
N=c1n(CCN2CCCCC2)c2ccccc2n1CC(O)c1cccc(Br)c1 (centres undefined),1,3.81,1.58,4.93
Cc1ccc(-c2cc3c(SCC(=O)Nc4cc(C(F)(F)F)ccc4Cl)nccn3n2)cc1,16.6,21.6,5.89,13.5
CC(Oc1ccc(NC(=O)c2cccs2)cc1)C(=O)c1ccc(Cl)cc1 (centres undefined),0.081,0.1,13.3,0.29
COc1ccc(C(=O)Nc2nonc2-c2ccc(OC)c(OC)c2)cc1Cl,19.3,> 25,20.4,15.9

Compound,IC50 [1] [µM],IC50 [2] [µM],IC50 [3] [µM],IC50 [4] [µM]
COc1ccc2c(c1)OC(O)(C(F)(F)C(F)(F)F)CC2=O (centres undefined),15.7,> 25,17.7,11.8
O=C(NCCCN1CCC(N2CCCCC2)CC1)C1=Cc2cc(Br)ccc2OC1,0.08,1,5.09,4.13
OC1CCCCC1C1(NC(=S)Nc2ccccc2)CCCCC1 (centres undefined),0.93,1.41,5.09,14.1
Cc1sc(NC(=O)c2ccco2)c(C(c2cccnc2)N2CCC(Cc3ccccc3)CC2)c1C (centres undefined),0.073,0.086,17.5,0.45
CC(C)=CCN1CCC(C(=O)Nc2ccc(-c3nc4ccccc4[nH]3)cc2)CC1,1.04,5.5,0.051,17
CC(=O)c1ccc(NC(=O)CSc2nc(-c3ccccc3Cl)ns2)cc1,10,0.86,0.65,3.34
CCCCCCc1cc2cc(-c3csc(C=Cc4ccccc4)n3)c(=O)oc2cc1O,25,5.92,6.86,10
Cc1ccc(C2CC(C(F)(F)F)n3nc(C(=O)N4CCN(C(c5ccccc5)c5ccccc5)CC4)cc3N2)cc1 (centres undefined),15.9,9.55,12.6,0.98
CCCc1cc(O)c2c3c(c(=O)oc2c1)CN(C)CC3,16.4,23.9,18.5,7.87
COCCn1c(C)nc2ccccc2c1=O,14.7,14.3,12.9,13.9
O=C1c2ccccc2-c2nnc(-c3ccc(Br)cc3)cc21,0.77,0.86,10.1,18.1
COc1ccccc1C(=O)ON=C(N)Cc1cccc2ccccc12,19.8,22.4,7.65,6.86
COc1cccc(C=Cc2nc(=O)c3ccccc3o2)c1OC,20,> 25,16.5,22.3
O=C(NCC1Cc2cccc(-c3ccncc3)c2O1)c1csc2c1CCCC2 (centres undefined),1,7.18,3.7,15.3
COc1ccc(-c2nonc2NC(=O)c2cccc(C)c2)cc1OC,0.69,0.078,5.64,10
